Assays:
ZIKV in human astrocytes = experiment: ZIKV infection of human astrocytes (ZIKVE immunostaining, NS1 Western blot/ELISA); type: cell-based, Zika virus; conditions: PRVABC59
Method: (§1) FIGS. 4A-1, 4A-2, 4B-1, 4B-2, 4B-3, 4C-1, 4C-2, 4D-1, and 4D-2. […] Cells were fixed 24 hours post infection and stained for ZIKVE (green) and DAPI (blue). Scale bar: 50 μm. Also shown is the quantification of ZIKV-infected astrocytes with multiple compound concentrations (FIG. 4A-2). Values represent mean±s.d. (n=6; ***P<0.001; One-way ANOVA). Shown in FIG. 4B-3 is virus production from compound-treated iPSC-derived human astrocytes (as in FIG. 2F) (n=3 cultures). Data represent mean±s.d. […] Shown are sample images and quantification (FIGS. 4B-1 and 4B-2). Values represent mean±s.d. (n=2; ***P<0.01; One-way ANOVA). Synergistic effect of Emricasan/PHA-690509 combination on improving cell viability in ZIKV infected astrocytes. Note that Emricasan and PHA-690509 inhibit the increased caspase-3 activity in a concentration-dependent manner in human astrocytes infected with FSS13025-ZIKV or MR766 ZIKV, and improve cell viability as measured by ATP production (FIGS. 4C-1, 4C-2, 4D-1, and 4D-2). Values represent mean±s.d. […]
FIGS. 8A-8E. […] Cell lysates were harvested 24 hours post infection and analyzed for ZIKV-NS1 and GAPDH protein levels by western blot. Shown are representative Western blot images (FIG. 8A) and quantification (FIG. 8B). […] Shown in FIG. 8D are representative images of immunostaining for ZIKVE (green) and DAPI (gray, left; Scale bar: 20 μm) and quantification (FIG. 8E). […]

ZIKV PRVABC59 in hNPCs = experiment: ZIKV infection of hNPCs (NS1 Western blot); type: cell-based, Zika virus
Method: as §1, with “Synergistic effect of Emricasan/PHA-690509 combination on improving cell viability in ZIKV infected astrocytes.” left out, “4D-2).” for “4D-2). Values represent mean±s.d.”
SNB-19 cells, BJ astrocytes, or hNPCs were seeded in 12-well plates at approximately 3e5 cells/well. […] Cells and supernatant were harvested 24-48 hours post infection and analyzed by western blot or IFA. Western blot bands were quantified and IFA images counted using ImageJ (NIH, Bethesda, Md.).
SNB-19, BJ astrocyte, or NPCs were seeded in 12-well plates at approximately 3e5 cells/well. […] Cells and supernatant were harvested 24-48 hours post infection and analyzed by western blot or IFA. […]

| SMILES | inhibition of ZIKV infection in astrocytes (ZIKV in human astrocytes) | inhibition of ZIKV infection in hNPCs (ZIKV PRVABC59 in hNPCs) |
| --- | --- | --- |
| O=C(Nc1ccc([N+](=O)[O-])cc1Cl)c1cc(Cl)ccc1O [Niclosamide] | inhibited ZIKV^PR infection | inhibited ZIKV^PR infection |
| CC(=O)Nc1ccc([C@H](C)C(=O)Nc2ncc(C(C)C)s2)cc1 [PHA-690509] | inhibited ZIKV^PR infection | inhibited ZIKV^PR infection |

Source: patent US10940188B2, “Compounds and methods for treatment and prevention of Flavivirus infection” (priority 2016, dated 2021)
